Patent publication US12358915B2, “METTL3 inhibitory compounds” (STORM THERAPEUTICS LTD., priority 2019, dated 2025)
Like-named read-outs stand apart in the source and are kept apart here.

Tests used:
METTL3/14 = biological target: T1, METTL3/14 (Homo sapiens, UniProt Q86U44); test: METTL3/14 methyltransferase assay (METTL3_14 RFMS, RapidFire mass spectrometry); assay type: biochemical; settings: 5 nM METTL3/14, 0.2 μM RNA substrate, 0.5 μM SAM, lower limit of the assay IC50=5 nM, read-out: METTL3_14 RFMS IC50;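 note: recombinant His-tagged METTL3 with FLAG-tagged METTL14 from baculovirus, SAH product quantified by mass spectrometry against isotope-labelled internal standards, 60 min at room temperature, scaled between no-RNA and DMSO-only wells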
T1 construct: The enzyme used was full-length his-tagged METTL3; His; made in house
T1 sequence (Q86U44 whole entry): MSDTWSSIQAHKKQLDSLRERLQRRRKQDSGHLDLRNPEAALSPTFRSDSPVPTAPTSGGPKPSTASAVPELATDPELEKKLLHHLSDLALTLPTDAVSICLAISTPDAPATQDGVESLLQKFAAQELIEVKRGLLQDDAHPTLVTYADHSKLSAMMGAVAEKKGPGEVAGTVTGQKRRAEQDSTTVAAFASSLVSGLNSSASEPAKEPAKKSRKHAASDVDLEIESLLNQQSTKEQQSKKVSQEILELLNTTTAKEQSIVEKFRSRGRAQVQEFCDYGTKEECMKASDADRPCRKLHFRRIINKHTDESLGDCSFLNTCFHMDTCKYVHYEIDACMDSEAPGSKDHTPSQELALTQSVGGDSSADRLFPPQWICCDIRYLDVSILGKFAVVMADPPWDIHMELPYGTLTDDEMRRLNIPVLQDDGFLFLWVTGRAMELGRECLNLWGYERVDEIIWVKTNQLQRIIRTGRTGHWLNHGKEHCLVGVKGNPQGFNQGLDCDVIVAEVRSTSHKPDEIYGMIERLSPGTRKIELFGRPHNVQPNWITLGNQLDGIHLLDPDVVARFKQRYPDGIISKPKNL
T1 sequence (Q9HCE5 whole entry partner): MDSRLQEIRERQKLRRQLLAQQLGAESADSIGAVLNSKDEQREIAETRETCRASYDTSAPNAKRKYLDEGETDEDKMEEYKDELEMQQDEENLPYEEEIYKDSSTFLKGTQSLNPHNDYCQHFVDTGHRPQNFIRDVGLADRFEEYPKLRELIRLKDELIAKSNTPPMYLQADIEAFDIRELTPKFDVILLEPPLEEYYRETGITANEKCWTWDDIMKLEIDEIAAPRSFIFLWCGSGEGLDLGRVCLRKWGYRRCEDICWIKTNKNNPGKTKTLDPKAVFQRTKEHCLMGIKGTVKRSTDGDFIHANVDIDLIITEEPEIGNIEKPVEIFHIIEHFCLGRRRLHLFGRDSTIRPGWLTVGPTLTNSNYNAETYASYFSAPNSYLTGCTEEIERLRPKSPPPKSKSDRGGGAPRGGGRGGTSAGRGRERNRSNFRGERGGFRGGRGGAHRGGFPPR

MOLM-13 cells = test: MOLM13 CTG - analysis of cell proliferation (Cell Titre Glo); assay type: cell-based; settings: Homo sapiens, geometric mean, read-out: CTG MOLM13 cells IC50 GEOMEAN
Description: MOLM-13 or MOLM-14 cells were plated, in suspension, in 24 well tissue culture plates at final concentration of 200,000/ml, with or without 50 ng/ml IFNγ. […] Cells were incubated for 4 days at 37° C. at which point 600 μl of cell suspension was removed for Mass spectrometry analysis of m6A. 600 μl of fresh media containing the appropriate concentration of METTL3 inhibitor/IFNγ was added to remaining cell suspensions. Cells where then cultured for a further 7 days, cell suspension was sampled for analysis of proliferation and Cell surface markers periodically.
At regular time points (4, 5, 6 &7) days cells were mixed to maintain a homogenous cell suspension. 25 μl of this cell suspension was removed and added to a white 384 well plate, 25 μl of Cell Titre Glo reagent (Promega) was added, and incubated for 10 mins at room temperature before measurement of luminescence intensity, as per the manufacturers instructions.

| SMILES | IC50 (METTL3/14; Compounds 266-351) [µM] | IC50 (MOLM-13 cells) [µM] | IC50 (METTL3/14; Compounds 63-265) [µM] |
| --- | --- | --- | --- |
| CCC(C)(C)CNCc1ccc2nc(CNC(=O)c3cc(=O)n4ccccc4n3)cn2c1 [Compound 292, N-[[6-[(2,2-dimethylbutylamino)methyl]imidazo[1,2-a]pyridin-2-yl]methyl]-4-oxo-pyrido[1,2-a]pyrimidine-2-carboxamide] | 0.02 | 7.19 | – |
| OC1(CNCc2ccc3nc(Cn4cc(-c5nccc6[nH]ncc56)nn4)cn3c2)CCC1 [Example 326, 1-[[[2-[[4-(1H-pyrazolo[4,3-c]pyridin-4-yl)triazol-1-yl]methyl]imidazo[1,2-a]pyridin-6-yl]methylamino]methyl]cyclobutanol] | 0.0766 | 10.7 | – |
| OCc1ccc2nc(Cn3cc(-c4cc(Br)cc5[nH]ncc45)nn3)cn2c1 [Example 253, (2-{[4-(6-bromo-1H-indazol-4-yl)-1H-1,2,3-triazol-1-yl]methyl}imidazo[1,2-a]pyridin-6-yl)methanol] | – | 2.79 | 0.207 |
| COc1ccc2[nH]ncc2c1-c1cn(Cc2cn3cc(CNCC4(O)CCC4)ccc3n2)nn1 [Example 268, 1-[[[2-[[4-(5-methoxy-1H-indazol-4-yl)triazol-1-yl]methyl]imidazo[1,2-a]pyridin-6-yl]methylamino]methyl]cyclobutanol] | 0.0106 | 5.33 | – |
| CC(C)(C)NCc1ccc2nc(CNC(=O)c3cc(=O)n4ccccc4n3)cn2c1 [Compound 127, N-({6-[(tert-butylamino)methyl]imidazo [1,2-a]pyridin-2-yl}methyl)-4-oxo-4H-pyrido[1,2-a] pyrimidine-2-carboxamide] | – | ≥ 30 | 0.429 |
| COC(C)(C)CNCc1ccc2nc(CNC(=O)c3cc(=O)n4ccccc4n3)cn2c1 [Compound 281, N-[[6-[[(2-methoxy-2-methyl-propyl)amino]methyl]imidazo[1,2-a]pyridin-2-yl]methyl]-4-oxo-pyrido[1,2-a]pyrimidine-2-carboxamide] | 0.0987 | ≥ 30 | – |
| Fc1ccc(-c2cn(Cc3cn4cc(CNCC5CCC5)ccc4n3)nn2)c2cn[nH]c12 [Example 305, N-(cyclobutylmethyl)-1-[2-[[4-(7-fluoro-1H-indazol-4-yl)triazol-1-yl]methyl]imidazo[1,2-a]pyridin-6-yl]methanamine] | 0.00601 | 1.83 | – |
| Oc1cc(-c2cn(Cc3cn4cc(CNCC5(O)CCC5)ccc4n3)nn2)c2cn[nH]c2c1 [Example 267, 4-[1-[[6-[[(1-hydroxycyclobutyl)methylamino]methyl]imidazo[1,2-a]pyridin-2-yl]methyl]triazol-4-yl]-1H-indazol-6-ol] | 0.00695 | ≥ 30 | – |
| O=C(NCc1cn2cc(CNC3(c4ccccc4)COC3)ccc2n1)c1cc(=O)n2ccccc2n1 [Compound 89, 4-oxo-N-[(6-{[(3-phenyloxetan-3-yl)amino]methyl}imidazo[1,2-a]pyridin-2-yl)methyl]-4H-pyrido[1,2-a]pyrimidine-2-carboxamide] | – | 13.1 | 1.86 |
| OC1(CNCc2ccc3nc(Cn4cc(-c5cccc6[nH]ncc56)nn4)cn3c2)CCCCC1 [Example 328, 1-[[[2-[[4-(1H-indazol-4-yl)triazol-1-yl]methyl]imidazo[1,2-a]pyridin-6-yl]methylamino]methyl]cyclohexanol] | 0.00884 | 3.25 | – |
| O=C1CC(c2ccc3nc(CNC(=O)c4cc(=O)n5ccccc5n4)cn3c2)NC(C2CCCCC2)C1 (mixture of isomers) [Example 334, N-[[6-(6-cyclohexyl-4-oxo-2-piperidyl)imidazo[1,2-a]pyridin-2-yl]methyl]-4-oxo-pyrido[1,2-a]pyrimidine-2-carboxamide] | 0.122 | 17.9 | – |
| O=C(NCc1cn2cc(CNCC3(F)CCC3)ccc2n1)c1cc(=O)n2ccccc2n1 [Compound 206, N-{[6-({[(1-fluorocyclobutyl)methyl]amino}methyl)imidazo [1,2-a]pyridin-2-yl]methyl}-4-oxo-4H-pyrido [1,2-a]pyrimidine-2-carboxamide] | – | 9.13 | 0.0156 |
| O=C(NCc1cn2cc(CNCc3ccccc3)ccc2n1)c1cccc2[nH]ncc12 [Compound 178, N-({6-[(benzylamino)methyl]imidazo [1,2-a]pyridin-2-yl}methyl)-1H-indazole-4-carboxamide] | – | 9.89 | 0.209 |
| CC1(F)CCN(Cc2ccc3nc(CNC(=O)c4cc(=O)n5ccccc5n4)cn3c2)CC1 [Compound 207, N-({6-[(4-fluoro-4-methylpiperidin-1-yl)methyl]imidazo[1,2-a]pyridin-2-yl}methyl)-4-oxo-4H-pyrido [1,2-a]pyrimidine-2-carboxamide] | – | 10.2 | 0.0379 |
| CC(NCC1CCCCC1)c1ccc2nc(Cn3cc(-c4cccc5[nH]ncc45)nn3)cn2c1 (stereo not drawn) [Example 255] | – | 9.61 | 0.0258 |
| O=C(NCc1cn2cc(CN3CCC4(CC3)CC4)ccc2n1)c1cc(=O)n2ccccc2n1 [Compound 216, N-{[6-({6-azaspiro[2.5]octan-6-yl}methyl)imidazo [1,2-a]pyridin-2-yl]methyl}-4-oxo-4H-pyrido [1,2-a]pyrimidine-2-carboxamide] | – | 3.51 | 0.0149 |
| OC1(CNCc2ccc3nc(Cn4cc(-c5cc(Cl)cc6[nH]ncc56)nn4)cn3c2)CCC1 [Example 303, 1-[[[2-[[4-(6-chloro-1H-indazol-4-yl)triazol-1-yl]methyl]imidazo[1,2-a]pyridin-6-yl]methylamino]methyl]cyclobutanol] | 0.00592 | 1.44 | – |
| CCC(C)CNCc1ccc2nc(CNC(=O)c3cc(=O)n4ccccc4n3)cn2c1 (stereo not drawn) [Compound 285, N-[[6-[(2-methylbutylamino)methyl]imidazo[1,2-a]pyridin-2-yl]methyl]-4-oxo-pyrido[1,2-a]pyrimidine-2-carboxamide] | 0.015 | 7.37 | – |
| Clc1ccc(-c2cn(Cc3cn4cc(CNCC5CCC5)ccc4n3)nn2)c2cn[nH]c12 [Example 315, 1-[2-[[4-(7-chloro-1H-indazol-4-yl)triazol-1-yl]methyl]imidazo[1,2-a]pyridin-6-yl]-N-(cyclobutylmethyl)methanamine] | 0.0193 | 8.36 | – |
| CC(C)(C)CNCc1ccc2nc(Cn3cc(-c4cccc5[nH]ncc45)nn3)cn2c1 [Example 250, (2,2-dimethylpropyl)[(2-{[4-(1H-indazol-4-yl)-1H-1,2,3-triazol-1-yl]methyl}imidazo[1,2-a]pyridin-6-yl)methyl]amine] | – | 3 | 0.0113 |
| O=C(NCc1cn2cc(C(Cc3ccccc3)NCC3CCC3)ccc2n1)c1cc(=O)n2ccccc2n1 (stereo not drawn) [Example 313, N-[[6-[1-(cyclobutylmethylamino)-2-phenyl-ethyl]imidazo[1,2-a]pyridin-2-yl]methyl]-4-oxo-pyrido[1,2-a]pyrimidine-2-carboxamide] | 0.0376 | 11.3 | – |
| CN(Cc1ccccc1)Cc1ccc2nc(CNC(=O)c3cc(=O)n4ccccc4n3)cn2c1 [Compound 74, N-[(6-{[benzyl (methyl)amino]methyl}imidazo [1,2-a]pyridin-2-yl)methyl]-4-oxo-4H-pyrido [1,2-a]pyrimidine-2-carboxamide] | – | ≥ 30 | 0.122 |
| CC(C)(NCc1ccc2nc(CNC(=O)c3cc(=O)n4ccccc4n3)cn2c1)c1ccccc1 [Compound 78, 4-oxo-N-[(6-{[(2-phenylpropan-2-yl)amino]methyl}imidazo[1,2-a]pyridin-2-yl)methyl]-4H-pyrido[1,2-a]pyrimidine-2-carboxamide] | – | 6.04 | 0.163 |
| CC1(CNCc2ccc3nc(CNC(=O)c4cc(=O)n5ccccc5n4)cn3c2)CCC1 [Compound 282, N-[[6-[[(1-methylcyclobutyl)methylamino]methyl]imidazo[1,2-a]pyridin-2-yl]methyl]-4-oxo-pyrido[1,2-a]pyrimidine-2-carboxamide] | 0.0106 | 3.42 | – |
| O=C(NCc1ccc2nc(CNC(=O)c3cc(=O)n4ccccc4n3)cn2c1)c1ccccc1 [Compound 237, 4-oxo-N-({6-[(phenylformamido)methyl]imidazo[1,2-a]pyridin-2-yl}methyl)-4H-pyrido[1,2-a]pyrimidine-2-carboxamide] | – | 12.9 | 0.742 |
| O=C(NCc1cn2cc(C3COCCN3)ccc2n1)c1cc(=O)n2ccccc2n1 (stereo not drawn) [Example 263, N-{[6-(morpholin-3-yl)imidazo[1,2-a]pyridin-2-yl]methyl}-4-oxo-4H-pyrido[1,2-a]pyrimidine-2-carboxamide] | – | 13.8 | 2.73 |
| O=C(NCc1cn2cc(CNC[C@H]3C[C@H](F)C3)ccc2n1)c1cc(=O)n2ccccc2n1 [Compound 217, 4-oxo-N-({6-[({[(1r,3r)-3-fluorocyclo-butyl]methyl}amino)methyl]imidazo[1,2-a]pyridin-2-yl}methyl)-4H-pyrido[1,2-a] pyrimidine-2-carboxamide] | – | 2.93 | 0.00758 |
| FC1(F)CC(CNCc2ccc3nc(Cn4cc(-c5cc(Br)cc6[nH]ncc56)nn4)cn3c2)C1 [Example 252, [(2-{[4-(6-bromo-1H-indazol-4-yl)-1H-1,2,3-triazol-1-yl]methyl}imidazo[1,2-a]pyridin-6-yl)methyl][(3,3-difluorocyclobutyl)methyl]amine] | – | 0.715 | 0.00802 |
| c1cc(-c2cn(Cc3cn4cc(CNCC5CCCCC5)ccc4n3)nn2)c2cn[nH]c2c1 [Compound 248, (cyclohexylmethyl)[(2-{[4-(1H-indazol-4-yl)-1H-1,2,3-triazol-1-yl]methyl}imidazo[1,2-a]pyridin-6-yl)methyl]amine] | – | 1.93 | 0.0127 |
| O=C(NCc1cn2cc(CCNC3CCCCC3)ccc2n1)c1cc(=O)n2ccccc2n1 [Compound 236, N-({6-[2-(cyclohexylamino)ethyl]imidazo[1,2-a]pyridin-2-yl}methyl)-4-oxo-4H-pyrido[1,2-a]pyrimidine-2-carboxamide] | – | 11.8 | 0.0287 |
